Results as given in patent publication US6727232B2, “Nucleoside peptide antibiotics of AA-896” (Wyeth Holdings Corporation, priority 2001, dated 2004).
In brackets after ≈: the same amount, converted by molar mass. Where two headings read alike, the source gives them in different places.

Assays:
Assay in all cases: Broth dilution MIC
Assay type in all cases: cell-based
[1] = test system: K. pneumoniae GC 4534; details: Klebsiella pneumoniae, read-out: Antimicrobial Activity (MIC)
How it was run: (§1)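 Serial dilutions in Mueller-Hinton broth inoculated with bacterial suspension. MIC is the lowest concentration inhibiting growth after 18 hours at 35° C.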

[2] = test system: E. faecalis GC 4555; details: Enterococcus faecalis, read-out: Antimicrobial Activity (MIC)
How it was run: as §1

[3] = test system: E. coli GC 4560; details: Escherichia coli, read-out: Antimicrobial Activity (MIC)
How it was run: as §1

[4] = test system: P. aeruginosa GC 2214; details: Pseudomonas aeruginosa, read-out: Antimicrobial Activity (MIC)
How it was run: as §1

[5] = test system: S. marcescens GC 4077; details: Serratia marcescens, read-out: Antimicrobial Activity (MIC)
How it was run: as §1

[6] = test system: S. aureus GC 2216; details: Staphylococcus aureus, read-out: Antimicrobial Activity (MIC)
How it was run: as §1

[7] = test system: E. faecalis GC 2242; details: Enterococcus faecalis, read-out: Antimicrobial Activity (MIC)
How it was run: as §1

[8] = test system: E. faecalis GC 842; details: Enterococcus faecalis, read-out: Antimicrobial Activity (MIC)
How it was run: as §1

[9] = test system: E. coli GC 4559; details: Escherichia coli, read-out: Antimicrobial Activity (MIC)
How it was run: as §1

[10] = test system: E. coli GC 3226; details: Escherichia coli, read-out: Antimicrobial Activity (MIC)
How it was run: as §1

[11] = test system: E. cloacae GC 3783; details: Enterobacter cloacae, read-out: Antimicrobial Activity (MIC)
How it was run: as §1

[12] = test system: P. aeruginosa GC 4532; details: Pseudomonas aeruginosa, read-out: Antimicrobial Activity (MIC)
How it was run: as §1

[13] = test system: CNS GC 4537; details: read-out: Antimicrobial Activity (MIC)
How it was run: as §1

[14] = test system: M. morganii GC 4531; details: Morganella morganii, read-out: Antimicrobial Activity (MIC)
How it was run: as §1

[15] = test system: E. coli GC 2203; details: Escherichia coli, read-out: Antimicrobial Activity (MIC)
How it was run: as §1

[16] = test system: S. aureus GC 4536; details: Staphylococcus aureus, read-out: Antimicrobial Activity (MIC)
How it was run: as §1

[17] = test system: CNS GC 4547; details: read-out: Antimicrobial Activity (MIC)
How it was run: as §1

[18] = test system: S. aureus GC 1131; details: Staphylococcus aureus, read-out: Antimicrobial Activity (MIC)
How it was run: as §1

[19] = test system: CNS GC 4538; details: read-out: Antimicrobial Activity (MIC)
How it was run: as §1

[20] = test system: P. rettgeri GC 4530; details: Providencia rettgeri, read-out: Antimicrobial Activity (MIC)
How it was run: as §1

[21] = GC4534, K. pneumoniae GC 4534, Mueller-Hinton broth, 18 hours at 35° C.
[22] = GC4555, E. faecalis GC 4555, Mueller-Hinton broth, 18 hours at 35° C.
[23] = GC2214, P. aeruginosa GC 2214, Mueller-Hinton broth, 18 hours at 35° C.
[24] = GC4077, S. marcescens GC 4077, Mueller-Hinton broth, 18 hours at 35° C.
[25] = GC2216, S. aureus GC 2216, Mueller-Hinton broth, 18 hours at 35° C.
[26] = GC2242, E. faecalis GC 2242, Mueller-Hinton broth, 18 hours at 35° C.
[27] = GC842, E. faecalis GC 842, Mueller-Hinton broth, 18 hours at 35° C.
[28] = GC4559, E. coli GC 4559, Mueller-Hinton broth, 18 hours at 35° C.
[29] = GC3226, E. coli GC 3226, Mueller-Hinton broth, 18 hours at 35° C.
[30] = GC3783, E. cloacae GC 3783, Mueller-Hinton broth, 18 hours at 35° C.
[31] = GC4532, P. aeruginosa GC 4532, Mueller-Hinton broth, 18 hours at 35° C.
[32] = CNS GC 4537, Mueller-Hinton broth, 18 hours at 35° C.
[33] = GC4531, M. morganii GC 4531, Mueller-Hinton broth, 18 hours at 35° C.
[34] = GC2203, E. coli GC 2203, Mueller-Hinton broth, 18 hours at 35° C.
[35] = GC4536, S. aureus GC 4536, Mueller-Hinton broth, 18 hours at 35° C.
[36] = CNS GC 4547, Mueller-Hinton broth, 18 hours at 35° C.
[37] = GC1131, S. aureus GC 1131, Mueller-Hinton broth, 18 hours at 35° C.
[38] = CNS GC 4538, Mueller-Hinton broth, 18 hours at 35° C.
[39] = GC4530, P. rettgeri GC 4530, Mueller-Hinton broth, 18 hours at 35° C.

SMILES	MIC [1, 21]	MIC [2, 22]	MIC [4, 23]	MIC [5, 24]	MIC [6, 25]	MIC [7, 26]	MIC [8, 27]	MIC [9, 28]	MIC [10, 29]	MIC [11, 30]	MIC [12, 31]	MIC [13, 32]	MIC [14, 33]	MIC [15, 34]	MIC [16, 35]	MIC [17, 36]	MIC [18, 37]	MIC [19, 38]	MIC [20, 39]	MIC ([3]; GC4560, 18 h)	also measured
CCCCCCNC(=O)NC[C@H]1OC(O[C@H](C2C(=O)N(CCCCCC)C(=O)N2CCCNC(=O)C(NC(=O)C(NC(=O)NC(C(=O)O)C(C)C)C2CCNC(=N)N2)C(O)C(C)C)[C@H]2O[C@@H](n3ccc(=O)[nH]c3=O)[C@H](O)[C@@H]2O)[C@H](OC)[C@H]1O (stereo partly drawn) [Example 14, 14-[5-((R)-{(2S,3S,4R,5R)-5-[2,4-Dioxo-3,4-dihydro-1 (2H)-pyrimidinyl]-3,4-dihydroxytetrahydro-2-furanyl}{[(3R,4S,5R)-5-({[(hexylamino)carbonyl]amino}methyl)-4-hydroxy-3-methoxytetrahydro-2-furanyl]oxy}methyl)-3-hexyl-2,4-dioxo-1-imidazolidinyl]-9-(1-hydroxy-2-methylpropyl)-6-(2-iminohexahydro-4-pyrimidinyl)-2-isopropyl-4,7,10-trioxo-3,5,8,11-tetraazatetradecan-1-oic Acid]	> 32 µg/mL	> 32 µg/mL	> 32 µg/mL	> 32 µg/mL	32 µg/mL (≈ 27.1 µM)	32 µg/mL (≈ 27.1 µM)	> 32 µg/mL	> 32 µg/mL	> 32 µg/mL	> 32 µg/mL	> 32 µg/mL	32 µg/mL (≈ 27.1 µM)	> 32 µg/mL	> 32 µg/mL	32 µg/mL (≈ 27.1 µM)	16 µg/mL (≈ 13.5 µM)	32 µg/mL (≈ 27.1 µM)	32 µg/mL (≈ 27.1 µM)	> 32 µg/mL		MIC ([3]; GC4560, E. coli GC 4560, Mueller-Hinton broth, 18 hours at 35° C.): 32 µg/mL (≈ 27.1 µM)
CCCCCN(CCCNC(=O)C(NC(=O)C(NC(=O)NC(C(=O)O)C(C)C)C1CCNC(=N)N1)C(O)C(C)C)C(C(=O)O)[C@@H](OC1O[C@H](CN)[C@H](O)[C@H]1OC)[C@H]1O[C@@H](n2ccc(=O)[nH]c2=O)[C@H](O)[C@@H]1O (stereo partly drawn) [Example 9, 16-((R)-{[(3R,4S,5R)-5-(Aminomethyl)-4-hydroxy-3-methoxytetrahydro-2-furanyl]oxy}{(2S,3S,4R,5R)-5-[2,4-dioxo-3,4-di hydro-1 (2H)-pyrimidinyl]-3,4-dihydroxytetrahydro-2-furanyl}methyl)-9-(1-hydroxy-2-methylpropyl)-6-(2-iminohexahydro-4-pyrimidinyl)-2-isopropyl-4,7,10-trioxo-15-pentyl-3,5,8,11,15-pentaazaheptadecane-1,17-dioic Acid]	> 32 µg/mL	> 32 µg/mL	> 32 µg/mL	> 32 µg/mL	> 32 µg/mL	> 32 µg/mL	> 32 µg/mL	> 32 µg/mL	> 32 µg/mL	> 32 µg/mL	> 32 µg/mL	> 32 µg/mL	> 32 µg/mL	> 32 µg/mL	> 32 µg/mL	> 32 µg/mL	> 32 µg/mL	> 32 µg/mL	> 32 µg/mL	32 µg/mL (≈ 31.5 µM)	
CO[C@H]1C(O[C@H](C(C(=O)O)N(CCCNC(=O)C(NC(=O)C(NC(=O)NC(C(=O)O)C(C)C)C2CCNC(=N)N2)C(O)C(C)C)Cc2ccccc2)[C@H]2O[C@@H](n3ccc(=O)[nH]c3=O)[C@H](O)[C@@H]2O)O[C@H](CN)[C@@H]1O (stereo partly drawn) [Example 6, 16-((R)-{[(3R,4S,5R)-5-(Aminomethyl)-4-hydroxy-3-methoxytetrahydro-2-furanyl]oxy}{(2S,3S,4R,5R)-5-[2,4-dioxo-3,4-dihydro-1 (2H)-pyrimidinyl]-3,4-dihydroxytetrahydro-2-furanyl}methyl)-15-benzyl-9-(1-hydroxy-2-methylpropyl)-6-(2-iminohexahydro-4-pyrimidinyl)-2-isopropyl-4,7,10-trioxo-3,5,8,11,15-pentaazaheptadecane-1,17-dioic Acid]	> 32 µg/mL	> 32 µg/mL	> 32 µg/mL	> 32 µg/mL	> 32 µg/mL	> 32 µg/mL	> 32 µg/mL	> 32 µg/mL	> 32 µg/mL	> 32 µg/mL	> 32 µg/mL	> 32 µg/mL	> 32 µg/mL	> 32 µg/mL	> 32 µg/mL	> 32 µg/mL	> 32 µg/mL	> 32 µg/mL	> 32 µg/mL	2 µg/mL (≈ 1.93 µM)	
COc1ccc(NC(=O)NC[C@H]2OC(O[C@H](C3C(=O)N(c4ccc(OC)cc4)C(=O)N3CCCNC(=O)C(NC(=O)C(NC(=O)NC(C(=O)O)C(C)C)C3CCNC(=N)N3)C(O)C(C)C)[C@H]3O[C@@H](n4ccc(=O)[nH]c4=O)C(O)C3O)C(OC)C2O)cc1 (stereo partly drawn) [Example 13, 14-[5-((R)-{(2S,5R)-5-[2,4-Dioxo-3,4-dihydro-1 (2H)-pyrimidinyl]-3,4-dihydroxytetrahydro-2-furanyl}{[(5R)-4-hydroxy-3-methoxy-5-({[(4-methoxyanilino)carbonyl]amino}methyl)tetrahydro-2-furanyl]oxy}methyl)-3-(4-methoxyphenyl)-2,4-dioxo-1-imidazolidinyl]-9-(1-hydroxy-2-methylpropyl)-6-(2-iminohexahydro-4-pyrimidinyl)-2-isopropyl-4,7,10-trioxo-3,5,8,11-tetraazatetradecan-1-oic Acid]																				> 32 µg/mL	MIC ([1]; GC4534, 18 h): > 32 µg/mL; MIC ([2]; GC4555, 18 h): > 32 µg/mL; MIC ([4]; GC2214, 18 h): > 32 µg/mL; MIC ([5]; GC4077, 18 h): > 32 µg/mL; MIC ([6]; GC2216, 18 h): > 32 µg/mL; MIC ([7]; GC2242, 18 h): > 32 µg/mL; MIC ([8]; GC842, 18 h): > 32 µg/mL; MIC ([9]; GC4559, 18 h): > 32 µg/mL; MIC ([10]; GC3226, 18 h): > 32 µg/mL; MIC ([11]; GC3783, 18 h): > 32 µg/mL; MIC ([12]; GC4532, 18 h): > 32 µg/mL; MIC ([13]; 18 h): > 32 µg/mL; MIC ([14]; GC4531, 18 h): > 32 µg/mL; MIC ([15]; GC2203, 18 h): > 32 µg/mL; MIC ([16]; GC4536, 18 h): > 32 µg/mL; MIC ([17]; 18 h): > 32 µg/mL; MIC ([18]; GC1131, 18 h): > 32 µg/mL; MIC ([19]; 18 h): > 32 µg/mL; MIC ([20]; GC4530, 18 h): > 32 µg/mL
